For one test, the target named is PI3K alpha (Homo sapiens (Human), UniProt P42336). Description: Enzymatic PI3K alpha isoform inhibition (lipid kinase, Kinase-Glo luminescence). The test is classed as biochemical. The following applies: enzymatic assay. A general note: In Kinase-Glo more light means more ATP remaining.
A further test concerns the target PI3K delta (Homo sapiens (Human), UniProt O00329). Kind of test: Enzymatic PI3K delta isoform inhibition (lipid kinase, Kinase-Glo luminescence). The test is classed as biochemical. The following applies: enzymatic assay.

Experimental findings from patent US8653092B2, “Tetrahydro-pyrido-pyrimidine derivatives” (Novartis AG, priority 2010, dated 2014) are described below.

In general, IC50 refers to the concentration at which inhibition is half-maximal.

Sequence of PI3K delta (O00329 other isoform, or with tags, fused parts or gaps linker GGGGGG): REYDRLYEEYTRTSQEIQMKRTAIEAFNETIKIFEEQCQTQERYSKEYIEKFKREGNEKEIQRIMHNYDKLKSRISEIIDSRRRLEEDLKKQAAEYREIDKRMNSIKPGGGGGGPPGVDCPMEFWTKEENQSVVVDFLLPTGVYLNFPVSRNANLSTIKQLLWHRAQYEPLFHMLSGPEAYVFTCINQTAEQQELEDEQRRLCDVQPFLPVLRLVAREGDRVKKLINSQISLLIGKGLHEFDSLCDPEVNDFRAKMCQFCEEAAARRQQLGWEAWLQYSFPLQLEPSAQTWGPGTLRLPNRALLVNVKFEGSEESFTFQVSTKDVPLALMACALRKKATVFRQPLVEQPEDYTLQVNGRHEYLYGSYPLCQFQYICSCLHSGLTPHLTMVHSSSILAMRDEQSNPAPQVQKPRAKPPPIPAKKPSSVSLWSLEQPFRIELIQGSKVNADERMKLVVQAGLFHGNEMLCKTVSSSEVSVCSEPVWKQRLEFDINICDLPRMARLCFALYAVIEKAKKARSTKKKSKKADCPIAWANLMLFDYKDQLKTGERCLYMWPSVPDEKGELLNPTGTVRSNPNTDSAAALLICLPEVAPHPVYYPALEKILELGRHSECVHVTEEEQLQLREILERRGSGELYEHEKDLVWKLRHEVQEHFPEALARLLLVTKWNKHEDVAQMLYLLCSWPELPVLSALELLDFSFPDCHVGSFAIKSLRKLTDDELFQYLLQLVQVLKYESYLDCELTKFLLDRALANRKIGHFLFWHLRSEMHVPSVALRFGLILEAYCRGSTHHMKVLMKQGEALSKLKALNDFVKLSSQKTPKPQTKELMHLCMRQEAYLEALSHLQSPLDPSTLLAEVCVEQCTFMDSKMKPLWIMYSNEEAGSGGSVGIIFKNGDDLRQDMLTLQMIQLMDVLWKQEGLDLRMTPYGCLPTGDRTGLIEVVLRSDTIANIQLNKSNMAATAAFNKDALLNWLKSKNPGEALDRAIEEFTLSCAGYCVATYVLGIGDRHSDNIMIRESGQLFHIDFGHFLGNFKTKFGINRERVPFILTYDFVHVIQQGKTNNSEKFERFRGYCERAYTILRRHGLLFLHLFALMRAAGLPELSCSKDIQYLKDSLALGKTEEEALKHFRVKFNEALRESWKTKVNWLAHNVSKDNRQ
Sequence of PI3K alpha (P42336 other isoform, or with tags, fused parts or gaps): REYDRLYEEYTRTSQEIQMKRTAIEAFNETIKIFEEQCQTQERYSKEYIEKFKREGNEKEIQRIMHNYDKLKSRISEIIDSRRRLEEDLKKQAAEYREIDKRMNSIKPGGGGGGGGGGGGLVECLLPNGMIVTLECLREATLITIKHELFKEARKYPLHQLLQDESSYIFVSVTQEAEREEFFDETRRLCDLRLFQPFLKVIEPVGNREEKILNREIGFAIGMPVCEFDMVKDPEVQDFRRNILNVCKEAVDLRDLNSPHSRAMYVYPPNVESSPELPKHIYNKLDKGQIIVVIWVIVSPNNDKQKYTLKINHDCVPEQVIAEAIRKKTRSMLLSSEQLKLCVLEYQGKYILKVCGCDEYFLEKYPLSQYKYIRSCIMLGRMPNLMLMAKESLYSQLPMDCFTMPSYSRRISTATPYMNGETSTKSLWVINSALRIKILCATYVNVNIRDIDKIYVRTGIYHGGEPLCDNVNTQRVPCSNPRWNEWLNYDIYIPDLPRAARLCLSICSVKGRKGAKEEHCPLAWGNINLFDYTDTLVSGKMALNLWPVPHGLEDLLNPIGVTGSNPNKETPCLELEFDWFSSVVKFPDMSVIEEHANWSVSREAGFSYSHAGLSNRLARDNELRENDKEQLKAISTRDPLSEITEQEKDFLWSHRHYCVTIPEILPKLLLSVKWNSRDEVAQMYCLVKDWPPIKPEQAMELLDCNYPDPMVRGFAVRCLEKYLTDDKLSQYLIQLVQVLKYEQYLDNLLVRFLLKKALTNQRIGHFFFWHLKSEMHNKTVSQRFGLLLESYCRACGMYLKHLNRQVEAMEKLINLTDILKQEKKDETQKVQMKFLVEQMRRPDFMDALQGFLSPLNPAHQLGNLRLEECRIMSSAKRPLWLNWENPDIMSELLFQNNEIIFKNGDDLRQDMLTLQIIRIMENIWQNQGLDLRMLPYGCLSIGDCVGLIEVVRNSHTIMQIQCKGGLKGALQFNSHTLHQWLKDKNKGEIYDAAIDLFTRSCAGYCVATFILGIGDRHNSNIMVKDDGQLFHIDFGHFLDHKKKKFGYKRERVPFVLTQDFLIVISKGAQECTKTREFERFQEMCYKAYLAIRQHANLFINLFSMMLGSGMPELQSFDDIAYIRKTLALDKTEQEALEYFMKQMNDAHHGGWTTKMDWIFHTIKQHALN

In the case of `COc1cc(N2CCc3ncnc(O[C@H]4CCN(C(=O)C5CCC(F)(F)CC5)C4)c3C2)cnc1OC` [Example 26, (4,4-Difluoro-cyclohexyl)-{(S)-3-[6-(5,6-dimethoxy-pyridin-3-yl)-5,6,7,8-tetrahydro-pyrido[4,3-d]pyrimidin-4-yloxy]-pyrrolidin-1-yl}-methanone], the half-maximal inhibitory concentration (IC50) was 368 nM on PI3K alpha and 21 nM on PI3K delta. On the same counts, the results for `CCC(=O)N1CC[C@H](Oc2ncnc3c2CN(c2cnc(OC)c(C#N)c2)CC3)C1` [Example 64, 2-Methoxy-5-[4-((S)-1-propionyl-pyrrolidin-3-yloxy)-7,8-dihydro-5H-pyrido[4,3-d]pyrimidin-6-yl]-nicotinonitrile] are 2330 nM and 32 nM.

For the compound `COc1ncc(N2CCc3ncnc(O[C@H]4CCN(C(=O)C5CCOCC5)C4)c3C2)cc1F` [Example 7], the figures for the half-inhibitory concentration (IC50) against PI3K alpha and on PI3K delta were 1970 nM and 13 nM, respectively.

Turning to `O=C(C1CCOCC1)N1CC[C@H](Oc2ncnc3c2CN(c2cnc4ccccc4c2)CC3)C1` [Example 60, [(S)-3-(6-Quinolin-3-yl-5,6,7,8-tetrahydro-pyrido[4,3-d]pyrimidin-4-yloxy)-pyrrolidin-1-yl]-(tetrahydro-pyran-4-yl)-methanone], the IC50 against PI3K alpha was 3330 nM; against PI3K delta, 45 nM. On the same counts, the results for `COc1ncc(N2CCc3ncnc(O[C@H]4CCN(C(=O)C5CCCC5)C4)c3C2)cc1C#N` [Example 9, 5-[4-((S)-1-Cyclopentanecarbonyl-pyrrolidin-3-yloxy)-7,8-dihydro-5H-pyrido[4,3-d]pyrimidin-6-yl]-2-methoxy-nicotinonitrile] are 2910 nM and 9 nM.

With `COc1ncc(N2CCc3ncnc(O[C@H]4CCN(C(=O)c5cn(C)nc5C)C4)c3C2)cc1C(F)(F)F` [Example 48, (1,3-Dimethyl-1H-pyrazol-4-yl)-{(S)-3-[6-(6-methoxy-5-trifluoromethyl-pyridin-3-yl)-5,6,7,8-tetrahydro-pyrido[4,3-d]pyrimidin-4-yloxy]-pyrrolidin-1-yl}-methanone], the 50% inhibitory concentration (IC50) worked out at 518 nM against PI3K alpha and 29 nM on PI3K delta. As for `COc1ncc(N2CCc3ncnc(O[C@H]4CCN(C(=O)c5cnco5)C4)c3C2)cc1C(F)(F)F` [Example 94, {(S)-3-[6-(6-Methoxy-5-trifluoromethyl-pyridin-3-yl)-5,6,7,8-tetrahydro-pyrido[4,3-d]pyrimidin-4-yloxy]-pyrrolidin-1-yl}-oxazol-5-yl-methanone], on PI3K alpha, the concentration for half-maximal inhibition (IC50) was found to be 1710 nM.

With `COc1ncc(N2CCc3ncnc(O[C@H]4CCN(C(=O)CC5CCOCC5)C4)c3C2)cc1C#N` [Example 27, 2-Methoxy-5-{4-[(S)-1-(2-tetrahydro-pyran-4-yl-acetyl)-pyrrolidin-3-yloxy]-7,8-dihydro-5H-pyrido[4,3-d]pyrimidin-6-yl}-nicotinonitrile], the half-inhibitory concentration (IC50) against PI3K alpha was 3410 nM; on PI3K delta, 40 nM. Consider `COc1ncc(N2CCc3ncnc(O[C@H]4CCN(C(=O)c5cnoc5C)C4)c3C2)cc1C` [Example 31, {(S)-3-[6-(6-Methoxy-5-methyl-pyridin-3-yl)-5,6,7,8-tetrahydro-pyrido[4,3-d]pyrimidin-4-yloxy]-pyrrolidin-1-yl}-(5-methyl-isoxazol-4-yl)-methanone], for which the IC50 is 3020 nM on PI3K alpha and 21 nM on PI3K delta. Turning to `COc1ncc(N2CCc3ncnc(O[C@H]4CCN(C(=O)C5CCN(C(C)=O)CC5)C4)c3C2)cc1C` [Example 17, 1-(4-{(S)-3-[6-(6-Methoxy-5-methyl-pyridin-3-yl)-5,6,7,8-tetrahydro-pyrido[4,3-d]pyrimidin-4-yloxy]-pyrrolidine-1-carbonyl}-piperidin-1-yl)-ethanone], the half-maximal inhibitory concentration (IC50) against PI3K alpha worked out at 7680 nM; on PI3K delta it was 17 nM. On the same counts, the results for `COc1ncc(N2CCc3ncnc(O[C@H]4CCN(C(=O)c5cn(C)cn5)C4)c3C2)cc1C(F)(F)F` [Example 53, {(S)-3-[6-(6-Methoxy-5-trifluoromethyl-pyridin-3-yl)-5,6,7,8-tetrahydro-pyrido[4,3-d]pyrimidin-4-yloxy]-pyrrolidin-1-yl}-(1-methyl-1H-imidazol-4-yl)-methanone] are 504 nM and 6 nM. On the same counts, the results for `COc1ncc(N2CCc3ncnc(O[C@H]4CCN(C(=O)C5CCOC(C)(C)C5)C4)c3C2)cc1C#N` (stereo partly drawn) [Example 29, 5-{4-[(S)-1-(2,2-Dimethyl-tetrahydro-pyran-4-carbonyl)-pyrrolidin-3-yloxy]-7,8-dihydro-5H-pyrido[4,3-d]pyrimidin-6-yl}-2-methoxy-nicotinonitrile] are 2580 nM and 11 nM. On the same counts, the results for `O=C(C1CCOCC1)N1CC[C@H](Nc2ncnc3c2CN(c2cncc(C(F)(F)F)c2)CC3)C1` [Example 84, (Tetrahydro-pyran-4-yl)-{(S)-3-{6-(5-(trifluoromethyl)pyridin-3-yl)-5,6,7,8-tetrahydropyrido[4,3-d]pyrimidin-4-ylamino)pyrrolidin-1-yl}-methanone] are 58 nM and 9 nM. With `COc1ncc(N2CCc3ncnc(O[C@H]4CCN(C(=O)c5cnco5)C4)c3C2)cc1C` [Example 12, {(S)-3-[6-(6-Methoxy-5-methyl-pyridin-3-yl)-5,6,7,8-tetrahydro-pyrido[4,3-d]pyrimidin-4-yloxy]-pyrrolidin-1-yl}-oxazol-5-yl-methanone], the IC50 came to 952 nM at PI3K alpha and 12 nM at PI3K delta. Regarding `N#Cc1cc(N2CCc3ncnc(O[C@H]4CCN(C(=O)C5CCOCC5)C4)c3C2)cnc1N` [Example 6, 2-Amino-5-{4-[(S)-1-(tetrahydro-pyran-4-carbonyl)-pyrrolidin-3-yloxy]-7,8-dihydro-5H-pyrido[4,3-d]pyrimidin-6-yl}-nicotinonitrile], the IC50 against PI3K alpha amounted to 987 nM; against PI3K delta it was 44 nM.

`COc1ncc(N2CCc3ncnc(O[C@H]4CCN(C(=O)c5ccoc5)C4)c3C2)cc1C` [Example 11, Furan-3-yl-{(S)-3-[6-(6-methoxy-5-methyl-pyridin-3-yl)-5,6,7,8-tetrahydro-pyrido[4,3-d]pyrimidin-4-yloxy]-pyrrolidin-1-yl}-methanone]: the IC50 against PI3K alpha is 1200 nM; on PI3K delta it was 11 nM. On the same counts, the results for `COc1ncc(N2CCc3ncnc(O[C@H]4CCN(C(=O)c5cncs5)C4)c3C2)cc1C(F)(F)F` [Example 41, {(S)-3-[6-(6-Methoxy-5-trifluoromethyl-pyridin-3-yl)-5,6,7,8-tetrahydro-pyrido[4,3-d]pyrimidin-4-yloxy]-pyrrolidin-1-yl}-thiazol-5-yl-methanone] are 515 nM and 14 nM. On the same counts, the results for `COc1ncc(N2CCc3ncnc(O[C@H]4CCN(C(=O)c5cscn5)C4)c3C2)cc1C#N` [Example 35, 2-Methoxy-5-{4-[(S)-1-(thiazole-4-carbonyl)-pyrrolidin-3-yloxy]-7,8-dihydro-5H-pyrido[4,3-d]pyrimidin-6-yl}-nicotinonitrile] are 4230 nM and 49 nM.

For the compound `COc1cc(N2CCc3ncnc(O[C@H]4CCN(C(=O)C5CCOC(C)(C)C5)C4)c3C2)cnc1OC` (stereo partly drawn) [Example 24, {(S)-3-[6-(5,6-Dimethoxy-pyridin-3-yl)-5,6,7,8-tetrahydro-pyrido[4,3-d]pyrimidin-4-yloxy]-pyrrolidin-1-yl}-(2,2-dimethyl-tetrahydro-pyran-4-yl)-methanone], the IC50 is 374 nM at PI3K alpha and 9 nM against PI3K delta.

As for `COc1ncc(N2CCc3ncnc(N[C@H]4CCN(C(=O)c5cn(C)cn5)C4)c3C2)cc1C` [Example 77, -{(S)-3-[6-(6-Methoxy-5-methyl-pyridin-3-yl)-5,6,7,8-tetrahydro-pyrido[4,3-d]pyrimidin-4-ylamino]-pyrrolidin-1-yl}-(1-methyl-1H-imidazol-4-yl)-methanone], the values for the IC50 against PI3K alpha and against PI3K delta were 1290 nM and 44 nM, respectively. In the case of `Nc1ncc(N2CCc3ncnc(O[C@H]4CCN(C(=O)C5CCOCC5)C4)c3C2)cc1C(F)(F)F` [Example 57, {(S)-3-[6-(6-Amino-5-trifluoromethyl-pyridin-3-yl)-5,6,7,8-tetrahydro-pyrido[4,3-d]pyrimidin-4-yloxy]-pyrrolidin-1-yl}-(tetrahydro-pyran-4-yl)-methanone], the values for the IC50 against PI3K alpha and on PI3K delta were 590 nM and 25 nM, respectively. Consider `COc1ncc(N2CCc3ncnc(O[C@H]4CCN(C(=O)N5CCN(C)CC5)C4)c3C2)cc1C(F)(F)F` [Example 85, {(S)-3-[6-(6-methoxy-5-trifluoromethyl-pyridin-3-yl)-5,6,7,8-tetrahydro-pyrido[4,3-d]pyrimidin-4-yloxy]-pyrrolidin-1-yl}-(4-methyl-piperazin-1-yl)-methanone], for which the IC50 at PI3K delta is 21 nM. For `COc1ncc(N2CCc3ncnc(O[C@H]4CCN(C(=O)c5cocn5)C4)c3C2)cc1C` [Example 16], the results for the half-maximal inhibitory concentration (IC50) at PI3K alpha and against PI3K delta were 1680 nM and 16 nM, respectively. As to `COc1ncc(N2CCc3ncnc(O[C@H]4CCN(C(=O)c5cncn5C)C4)c3C2)cc1C` [Example 13, {(S)-3-[6-(6-Methoxy-5-methyl-pyridin-3-yl)-5,6,7,8-tetrahydro-pyrido[4,3-d]pyrimidin-4-yloxy]-pyrrolidin-1-yl}-(3-methyl-3H-imidazol-4-yl)-methanone], the IC50 on PI3K alpha is 1800 nM; at PI3K delta, 13 nM. On the same counts, the results for `COc1ncc(N2CCc3ncnc(N[C@H]4CCN(C(=O)[C@H]5CC[C@@H](O)CC5)C4)c3C2)cc1C(F)(F)F` (single isomer, unassigned) [Example 75] are 118 nM and 4 nM. `COc1ncc(N2CCc3ncnc(N[C@H]4CCN(C(=O)[C@H]5CC[C@H](OC)CC5)C4)c3C2)cc1C(F)(F)F` (single isomer, unassigned) [Example 74] gave a 50% inhibitory concentration (IC50) against PI3K delta of 4 nM. In the case of `COc1ncc(N2CCc3ncnc(N[C@H]4CCN(C(=O)[C@H]5CC[C@@H](OC)CC5)C4)c3C2)cc1C(F)(F)F` (single isomer, unassigned) [Example 73], at PI3K delta, the half-maximal inhibitory concentration (IC50) worked out at 4 nM. The same measure, in the same setting: the figure for `COC(=O)N1CC[C@H](Oc2ncnc3c2CN(c2cnc(OC)c(C#N)c2)CC3)C1` [Example 90, (S)-3-[6-(5-cyano-6-methoxy-pyridin-3-yl)-5,6,7,8-tetrahydro-pyrido[4,3-d]pyrimidin-4-yloxy]-pyrrolidine-1-carboxylic acid methyl ester] is 38 nM.
